# Source: article PMC12654037, “Norditerpene Natural Products from Subterranean Fungi with Anti-Parasitic Activity” (Microorganisms, 2025)
# Where two headings read alike, the source gives them in different places.
# Assays:
# C. parvum = C. parvum growth inhibition assay (Cp-NLuc-infected HCT-8 cells); assay type: cell-based, Cryptosporidium parvum; conditions: Cryptosporidium parvum
# Method: C. parvum growth inhibition assays: The in vitro growth inhibition assay of C. parvum has been previously described. Briefly, clear-bottom, white-sided 96 well plates were seeded with HCT-8 cells. Once the cells reached between 50% and 75% confluency, they were infected with Cp-NLuc oocysts (10,000/well) in complete media containing 0.6% taurocholate. At 24 h post-infection (hpi), the infected cells were treated with compounds at various concentrations. DMSO was used as a vehicle control in parallel. Parasite growth was determined at 72 hpi by measuring relative luminescence units (RLUs) using Promega Nano-Glo substrate (Promega, Madison, WI, USA) and a SpectraMax® L Microplate Reader (Molecular Devices, San Jose, CA, USA). The percent inhibition of parasite growth was calculated as [(RLUDMSO − RLUcompound)/RLUDMSO] × 100.
# T. gondii = T. gondii growth inhibition assay (TgRH-Luc:GFP-infected HFF cells); assay type: cell-based; conditions: Toxoplasma gondii, 10 µM to 156 nM, Figure 2E
# Method: T. gondii growth inhibition assays: The T. gondii inhibition assay was described previously. Briefly, HFF cells were seeded onto white-sided, clear-bottom 96 well plates, grown to confluence, and then 5000 TgRH-Luc:GFP parasites were added to each well. At 24 hpi, compounds or DMSO were added. The growth of the parasites was determined by relative luminescence at 48 hpi using Promega Bright-Glo (Promega, Madison, WI, USA) substrate. Plates were read, and the percent inhibition of parasite growth was calculated as described above. Determination of -static versus -cidal activity was conducted as indicated above, with parasite growth quantified after 48 h of infection. Each sample was run in triplicate, and each experiment was repeated three times.
# [1] = Microsomal stability assay, mouse; conditions: microsomes, pH 7.4
# Method: (§1) Microsomal stability assay. The in vitro microsomal stability assay was conducted in duplicate in commercially available mouse or human liver microsomes (Sekisui XenoTech, Kansas City, KS, USA), which were supplemented with nicotinamide adenine dinucleotide phosphate (NADPH) as a cofactor. […] The reaction was initiated by the addition of 1 mmol/L NADPH, followed by incubation at 37 °C. A negative control was performed in parallel without NADPH to reveal any chemical instability or non-NADPH dependent enzymatic degradation for each compound. […] At various time points (0, 5, 15, 30, and 60 min), a 40 µL of reaction aliquot was taken and quenched with 120 µL of acetonitrile containing 0.1% formic acid. The samples were then vortexed and centrifuged at 15,000 rpm for 5 min at 4 °C. The supernatants were collected and analyzed by LC-MS/MS to determine the in vitro metabolic half-life (t1/2).
# [2] = Microsomal stability assay, human; conditions: microsomes, pH 7.4
# Method: as §1
# Cp-NLuc = test: C. parvum -static versus -cidal washout assay; assay type: cell-based, Cryptosporidium parvum
# Method: (§2) To determine -static versus -cidal activity, the infection assay was conducted as described, but infected cells were treated with compounds for 30 min up to 24 h. The compounds were removed after the designated times, and infection was quantified at 72 h post-infection. To determine the activity of the compounds against asexual and sexual stages of the parasite, compounds were added for 4 h windows at times corresponding to asexual or sexual development. Parasite proliferation was then determined at 72 h post-infection. For all assays, each sample was run in triplicate, and three biological replicates were performed.
# [3] = tested on: C. parvum asexual and sexual stages; test: C. parvum asexual/sexual stage assay (4 h treatment windows); assay type: cell-based, Cryptosporidium parvum
# Method: as §2
# [4] = Serum biochemical analysis of infected and treated IFNγ −/− mice; assay type: in vivo, C57BL/6 IFNγ −/− mice
# Method: Inhibition of C. parvum infection in IFN-gamma knock-out (IFNγ −/−) mice: Twelve female C57BL/6 IFNγ −/− mice (4 weeks old) from the Jackson Laboratory were housed in a controlled environment with a 12 h light/dark cycle and access to food and water ad libitum. Cp-NLuc oocysts were isolated from infected mouse feces and purified using a sodium chloride density gradient. Mice were inoculated via oral gavage with a suspension of 10^4 oocysts in 50 µL sterile PBS. On days 5 and 6 post-infection, mice were treated with 4 mg/kg of oidiolactone A or DMSO vehicle control every 12 h for a total of four doses (6 mice per treatment group). Fecal samples were collected daily and stored at −20 °C until analysis. Feces were homogenized in a lysis buffer solution, centrifuged, and the supernatant was incubated with Nano-Glo® substrate in a 96-well plate, as previously described. Luminescence was measured in a microplate reader immediately after substrate addition. Oocyst shedding, measured in RLUs/gram of feces, was plotted over time, and the area under the curve was determined for each mouse. Mice were sacrificed 14 days post-infection, and serum was collected for biochemical analysis. Biochemical analyses were performed using the Beckman Coulter AU480 automated analyzer (Beckman Coulter, Brea, CA, USA) at the Clinical Pathology Laboratory, Veterinary Medical Center, University of Minnesota.
compound,measurement,setting,value
"CO[C@H]1OC(=O)C=C2[C@@]13O[C@@H]3[C@H]1OC(=O)[C@@]3(C)CCC[C@@]2(C)[C@@H]13 [compound 1, oidiolactone A]",EC50,"C. parvum; HCT-8, read-out: EC50 against C. parvum",530 nM
same,EC50,"C. parvum; Cp-NLuc-infected HCT-8 cells, 7.5 µM to 117 nM, Figure 2E, read-out: C. parvum EC50",529 nM
same,EC50,T. gondii,1630 nM
same,half-life at 1 µmol/L,[1],1.84 ± 0.0717 h
same,half-life at 1 µmol/L,[2],5.29 ± 0.278 h
same,EC90,Cp-NLuc; Cryptosporidium parvum,7500 nM
same,treatment time after which C. parvum did not recover (killing time),"Cp-NLuc; at EC90 7.5 µM, compound washed out, read 72 h post-infection",8 to 12 h
same,activity against gamete stages,"[3]; 7.5 μM, 4 h intervals",no activity
same,inhibition at 7.5 µM,"[3]; Cryptosporidium parvum, 4 h intervals post-infection, read 72 h, read-out: inhibition of parasites in asexual stage and transition to sexual stages",20 to 75%
same,"signs of acute toxicity (liver, renal, metabolic, cardiac functions, protein status, electrolytes vs control)","[4]; 4 mg/kg x 4 doses, serum day 14",no statistically significant differences
same,"LIH (sum of lipemia, icterus, and hemolysis scores per mouse)","[4]; serum, mean ± SD",1.5 ± 0.71
same,ALP,"[4]; serum, mean ± SD of two mice",182.00 ± 15.56 U/L
same,ALT,"[4]; serum, mean ± SD of two mice",37.50 ± 6.36 U/L
same,AST,"[4]; serum, mean ± SD of two mice",229.50 ± 31.82 U/L
same,Alb,"[4]; serum, mean ± SD of two mice",3.30 ± 0.14 g/dL
same,Amy,"[4]; serum, mean ± SD of two mice",456.00 ± 80.61 U/L
same,An Gap (calc.),"[4]; serum, mean ± SD of two mice",27.00 ± 1.41
same,BUN,"[4]; serum, mean ± SD of two mice",21.50 ± 4.95 mg/dL
same,CK,"[4]; serum, mean ± SD of two mice",1618.00 ± 376.18 U/L
same,Ca,"[4]; serum, mean ± SD of two mice",10.55 ± 0.07 mg/dL
same,Chol,"[4]; serum, mean ± SD of two mice",92.50 ± 7.78 mg/dL
same,Creat,"[4]; serum, mean ± SD of two mice",0.00 ± 0.00 mg/dL
same,GGT,"[4]; serum, mean ± SD of two mice",0.00 ± 0.00 U/L
same,Glob (calc.),"[4]; serum, mean ± SD of two mice",1.55 ± 0.07 g/dL
same,Gluc,"[4]; serum, mean ± SD of two mice",280.00 ± 15.56 mg/dL
same,HCO3,"[4]; serum, mean ± SD of two mice",14.85 ± 1.48 mmol/L
same,K,"[4]; serum, mean ± SD of two mice",5.15 ± 0.07 mmol/L
same,Mg,"[4]; serum, mean ± SD of two mice",2.75 ± 0.07 mg/dL
same,Na,"[4]; serum, mean ± SD of two mice",149.50 ± 0.71 mmol/L
same,Osmol (calc.),"[4]; serum, mean ± SD of two mice",310.00 ± 1.41
same,Phos,"[4]; serum, mean ± SD of two mice",10.25 ± 0.35 mg/dL
same,T. Bili,"[4]; serum, mean ± SD of two mice",0.10 ± 0.00 mg/dL
same,TP,"[4]; serum, mean ± SD of two mice",4.85 ± 0.21 g/dL
